Reference: ChEMBL document CHEMBL3870340, “Cytotoxic activity, apoptosis induction and structure-activity relationship of 8-OR-2-aryl-3,4-dihydroisoquinolin-2-ium salts as promising anticancer agents” (Bioorg Med Chem Lett, 2017)
pIC50: −log10 of the molar value.

Tests used:
[1] = Cytotoxicity against human NB4 cells assessed as decrease in cell viability after 48 hrs by MTT assay; format: functional, cell-based; conditions: NB-4, 48 h
[2] = Cytotoxicity against human MKN45 cells assessed as decrease in cell viability after 48 hrs by MTT assay; format: functional, cell-based; conditions: MKN-45, 48 h
[3] = Antiproliferative activity against human NB4 cells at 5 uM after 48 hrs by MTT assay relative to control; format: functional; conditions: NB-4, 48 h, read-out: GI
[4] = Antiproliferative activity against human MKN45 cells at 20 uM after 48 hrs by MTT assay relative to control; format: functional; conditions: MKN-45, 48 h, read-out: GI

For `COc1cccc([N+]2=Cc3c(cccc3OC)CC2)c1`, the pIC50 [1] was 4.64, the pIC50 [2] was 4.82 and the inhibition of growth at 5 µM [3] was 22.8%. For the same molecule, the inhibition of growth at 20 µM [4] was 66.2%.
In the case of `COc1cccc2c1C=[N+](c1ccc(C(F)(F)F)cc1)CC2`, the pIC50 [1] was 5.59, the pIC50 [2] was 5.15 and the inhibition of growth at 5 µM [3] was 53.3%. For the same molecule, the inhibition of growth at 20 µM [4] was 83.4%.
With `COc1cccc2c1C=[N+](c1ccc(O)cc1)CC2` the inhibition of growth at 5 µM [3] was 4.7% and the inhibition of growth at 20 µM [4] was 5.4%.
`COc1cccc2c1C=[N+](c1ccc(Br)cc1Br)CC2` gave a pIC50 [1] of 5.61, a pIC50 [2] of 5.34 and an inhibition of growth at 5 µM [3] of 61.4%. It also gave an inhibition of growth at 20 µM [4] of 51.9%.
For `COc1cccc2c1C=[N+](c1cc(Cl)cc(Cl)c1)CC2`, the pIC50 [1] was 5.58, the pIC50 [2] was 5.44 and the inhibition of growth at 5 µM [3] was 55.8%. It also gave an inhibition of growth at 20 µM [4] of 86.4%.
`COc1cccc2c1C=[N+](c1cccc(Cl)c1)CC2` showed a pIC50 [1] of 4.65, a pIC50 [2] of 5.00 and an inhibition of growth at 5 µM [3] of 35.1%. The inhibition of growth at 20 µM [4] was 73.3%.
Molecule `COc1cccc2c1C=[N+](c1cccc(C)c1)CC2` has a pIC50 [2] of 5.07, an inhibition of growth at 5 µM [3] of 3.1% and an inhibition of growth at 20 µM [4] of 79.6%.
In the case of `CC(=O)Oc1cccc2c1C=[N+](c1ccccc1I)CC2`, the inhibition of growth at 5 µM [3] was 15% and the inhibition of growth at 20 µM [4] was 3.4%.
`COc1cccc2c1C=[N+](c1ccc(C)cc1)CC2` showed an inhibition of growth at 5 µM [3] of 17.7% and an inhibition of growth at 20 µM [4] of 4.7%.
`COc1cccc2c1C=[N+](c1ccc(F)cc1)CC2` showed a pIC50 [1] of 4.62, a pIC50 [2] of 4.68 and an inhibition of growth at 5 µM [3] of 40.2%. The inhibition of growth at 20 µM [4] was 53%.
In the case of `COc1cccc2c1C=[N+](c1ccccc1Br)CC2`, the pIC50 [1] was 5.28, the pIC50 [2] was 5.16 and the inhibition of growth at 5 µM [3] was 48.6%. For the same molecule, the inhibition of growth at 20 µM [4] was 86.8%.
Molecule `COc1cccc2c1C=[N+](c1ccccc1C(F)(F)F)CC2` has a pIC50 [1] of 5.51, a pIC50 [2] of 5.53 and an inhibition of growth at 5 µM [3] of 59.3%. It also gave an inhibition of growth at 20 µM [4] of 85%.
Molecule `COc1cccc2c1C=[N+](c1c(F)cccc1F)CC2` has a pIC50 [1] of 5.41, a pIC50 [2] of 5.07 and an inhibition of growth at 5 µM [3] of 48.9%. For the same molecule, the inhibition of growth at 20 µM [4] was 80.5%.
Molecule `COc1cccc2c1C=[N+](c1ccc(C#N)cc1)CC2` has a pIC50 [1] of 5.46, a pIC50 [2] of 5.45 and an inhibition of growth at 5 µM [3] of 36.4%. It also gave an inhibition of growth at 20 µM [4] of 81.2%.
`COc1cccc2c1C=[N+](c1ccccc1)CC2` gave an inhibition of growth at 5 µM [3] of 20.5% and an inhibition of growth at 20 µM [4] of 14.4%.
With `COc1cccc2c1C=[N+](c1ccccc1F)CC2` the pIC50 [1] was 5.34, the pIC50 [2] was 5.18 and the inhibition of growth at 5 µM [3] was 42%. It also gave an inhibition of growth at 20 µM [4] of 67.5%.
Molecule `COc1cccc2c1C=[N+](c1ccc(Cl)cc1)CC2` has an inhibition of growth at 5 µM [3] of 23.1% and an inhibition of growth at 20 µM [4] of 12.3%.
`C[n+]1cc2c3c(ccc2c2ccc4cc5c(cc4c21)OCO5)OCO3` [SANGUINARIUM] showed a pIC50 [1] of 6.28, a pIC50 [2] of 5.82 and an inhibition of growth at 5 µM [3] of 88.5%. It also gave an inhibition of growth at 20 µM [4] of 92.3%.
Work on `COc1cccc2c1C=[N+](c1cccc(C(F)(F)F)c1)CC2` yielded a pIC50 [1] of 5.02, a pIC50 [2] of 5.69 and an inhibition of growth at 5 µM [3] of 47.9%. For the same molecule, the inhibition of growth at 20 µM [4] was 78.3%.
Molecule `COc1cccc2c1C=[N+](c1ccccc1[N+](=O)[O-])CC2` has an inhibition of growth at 5 µM [3] of 10.5% and an inhibition of growth at 20 µM [4] of 3%.
In the case of `COc1cccc2c1C=[N+](c1cccc(O)c1)CC2`, the inhibition of growth at 5 µM [3] was 24.2% and the inhibition of growth at 20 µM [4] was 24.5%.
In the case of `COc1cccc2c1C=[N+](c1ccccc1C)CC2`, the inhibition of growth at 5 µM [3] was 3.4% and the inhibition of growth at 20 µM [4] was 30.5%.
Work on `COc1ccc([N+]2=Cc3c(cccc3OC)CC2)cc1` yielded an inhibition of growth at 5 µM [3] of 6.6% and an inhibition of growth at 20 µM [4] of 0.7%.
`COc1cccc2c1C=[N+](c1ccccc1O)CC2` showed an inhibition of growth at 5 µM [3] of 0.6% and an inhibition of growth at 20 µM [4] of 8.4%.
Work on `Oc1cccc2c1C=[N+](c1ccccc1I)CC2` yielded an inhibition of growth at 5 µM [3] of 22.9% and an inhibition of growth at 20 µM [4] of 30.9%.
`CCOc1cccc2c1C=[N+](c1ccccc1I)CC2` showed an inhibition of growth at 5 µM [3] of 49.7% and an inhibition of growth at 20 µM [4] of 82.2%.
Molecule `COc1ccccc1[N+]1=Cc2c(cccc2OC)CC1` has an inhibition of growth at 5 µM [3] of 2.1% and an inhibition of growth at 20 µM [4] of 15%.
